Values joined by “and” are separate entries in the source; they are usually repeats but may differ in a detail not shown here. Equal entries are not always repeated. Where two headings read alike, the source gives them in different places.
Experiments:
[1] = system: S. cerevisiae mutant derivative MVY#2013 (opi1); settings: for increase in μ value for opi1 over wild type: 5% ethanol; for Specific Growth Rates in 2% Glucose (μ) / Specific Growth Rates in 12% Glucose (μ): 5% Ethanol
Protocol: (§1) The method for examining ethanol tolerance by profiling yeast growth was adapted from You et al. (You et al., “Ethanol Tolerance in the Yeast Saccharomyces cerevisiae is Dependent on Cellular Oleic Acid Content,” Applied Environ Microbiology 69:1499-1503 (2003), which is hereby incorporated by reference in its entirety). Inocula of wildtype and opi1 yeast strains were prepared as previously described (see Plating Assays) except a Marathon 21K/BR bench top centrifuge (Fisher Scientific, Inc., Hampton, N.H.) was used. The cell pellet was suspended in —I media and the OD was measured by pipetting […] of the cell suspension into a clean well of a 96 well plate and reading OD in a plate reader (Synergy HT Multidetection Microplate Reader, Bio-Tek Instruments, Inc., Winooski, Vt.).
(§2) Cells were inoculated into 125-mL polycarbonate Erlenmeyer flasks with 50-mL of +I or −I containing either 2% or 12% glucose and 0 or 5% ethanol, at a final OD of 0.05. Each media type was performed in triplicate for both yeast strains. Flasks were placed in an incubator-shaker at 30° C. and 250 rpm (Gyratory Waterbath Shaker, New Brunswick Scientific, Edison, N.J.). The OD of each culture was measured over a period of at least 36 hr or until the cell density had stabilized for a period of no less than 12 hr. Triplicate OD measurements were performed for each sample and measurements were averaged.
(§3) Specific growth rate, or the growth rate over time per unit of biomass, was calculated in order to provide a quantitative assessment of the impact of experimental conditions on growth rate. Specific growth rates were estimated for both yeast strains for all of the conditions mentioned using the following first order kinetic equation:
(§4) μ=specific growth rate, (hr^−1)
(§5) This equation was fit to the data presented in FIGS. 3 through 6 using the nonlinear parameter estimation tool in KaleidaGraph.

[2] = system: S. cerevisiae wild type haploid MVY#19; settings: WT, 5% Ethanol
Protocol: as §1, §2, §3, §4, §5

[3] = system: S. cerevisiae wild type diploid MVY#2008; settings: for Specific Death Rates in 2% Glucose (d): WT
Protocol: (§6) The method for examining ethanol tolerance using a plating technique was adapted from Chi et al. (Chi et al., “Role of Phosphatidylinositol (PI) in Ethanol Production and Ethanol Tolerance By a High Ethanol Producing Yeast,” J Industrial Microbiology Biotechnology 22:58-63 (1999), which is hereby incorporated by reference in its entirety). Inocula of wild type and opi1 yeast strains were prepared as previously described. Cells were centrifuged at 4,500 rpm for 5 min at 4° C. (Sorvall Legend R T, Kendro Laboratory Products, Asheville, N.C.), and the supernatant was removed. Cells were washed twice with −I media, centrifuged at 4,500 rpm for 5 min, and the resulting pellet was stored at 4° C.
(§7) The cell pellets were re-suspended in inositol-free media and the OD was measured. Cells were inoculated into a 500-mL polycarbonate Erlenmeyer flask containing 110-mL of synthetic media either containing (+I) or lacking inositol (−I) at a final OD of 0.1. The cell cultures were placed in an incubator-shaker at 30° C. and 250 rpm until the OD reached 0.5.
(§8) Two volumes of cell suspension containing 1×10^8 cells—previously determined by cell counting with a hemacytometer (Bright-Line Hemacytometer, Reichert Scientific Instruments, Buffalo, N.Y.)—were removed from the flasks and placed in separate sterile 50-mL centrifuge tubes. Cells were centrifuged at 4,500 rpm for 5 min at 4° C. and the supernatant was removed. Cells were washed twice with either −I or +I media as previously described, and the resulting supernatants were discarded. Ten mL of ethanol (10, 15 or 18% (v/v)) was added to one of the 50-mL centrifuge tubes containing a washed cell pellet and this represented the “shocked culture.” As a control, 10-mL of sterile water was added to the second 50-mL tube containing a washed cell pellet. Two 25-μl aliquots of the control culture were removed and plated on YPD plates, representing time zero of the experiment. Cell suspensions were transferred from 50-mL centrifuge tubes to 25-mL sterile glass tubes. The glass tubes were placed in an incubator-shaker at 30° C. and 250 rpm.
(§9) Samples of both the shocked and control cultures were taken every hour for 4 hr. Shocked cells were diluted in ethanol (10, 15, or 18%, consistent with the concentration of the shocked culture) at dilution factor of 1:1000. Control cells were diluted in sterile water at the same dilution factor. Duplicate 25-μl aliquots were plated on YPD plates for each sample of either shocked or control cell cultures over the 4 hr time course. All plates were placed in a 30° C. incubator. Colonies were counted on all plates after 48 and 72 hr. Duplicate plate counts were averaged. Ethanol tolerance of each strain, in terms of cell viability, in either +I or −I media over a range of ethanol concentrations, was expressed as a ratio of the number of colonies counted in the shocked culture at 72 hr to the number of colonies counted in the control culture at 72 hr. Cell viability in the control culture at time-zero of the experiment was assumed to be 100%.
(§10) Ethanol tolerance of each strain was calculated, in terms of cell viability (CV), using the number of colony forming units (CFUs) in the shocked and control cultures after 72 hr of incubation using the following equation:
(§11) Cell viability in the control culture at time-zero of the experiment was assumed to be 100%. All ethanol concentrations are volume-volume percentages (v/v), while all glucose concentrations are in weight-volume percentages (w/v).
(§12) To model the data presented in FIGS. 1 and 2 and to estimate specific death rates a simple first-order kinetic model was fitted to the data using the nonlinear parameter estimation tool in KaleidaGraph (Synergy Software, Reading, Pa.):
(§13) d=specific death rate, (hr^−1)

[4] = system: S. cerevisiae mutant derivative MVY#2015 (opi1)
Protocol: as §6, §7, §8, §9, §10, §11, §12, §13

Which “increase in μ value for opi1 over wild type” value (shortened to “increase in μ value for opi1”) ([1]; +I media, 2% glucose) does the source give for `CCO` [Ethanol, ethanol] here?
The value was 5%.

What about the “increase in μ value for opi1” value ([1]; +I media, 12% glucose) of the same compound?
Its value is 16%.

What about the “increase in μ value for opi1” value ([1]; −I media, 2% glucose) of the same compound?
The value was 57%.

What about the “increase in μ value for opi1” value ([1]; −I media, 12% glucose) of the same compound?
The value was 33%.

What about the “Specific Growth Rates in 2% Glucose (μ)” value ([1]; opi1, I+ media, 2% glucose) of the same compound?
Its value is 0.118 ± 0.012 h⁻¹.

And the “Specific Growth Rates in 12% Glucose (μ)” value ([1]; opi1, I+ media, 12% glucose)?
Its value is 0.127 ± 0.007 h⁻¹.

And the “Specific Growth Rates in 2% Glucose (μ)” value ([1]; opi1, I− media, 2% glucose)?
The value was 0.102 ± 0.011 h⁻¹.

What about the “Specific Growth Rates in 12% Glucose (μ)” value ([1]; opi1, I− media, 12% glucose) of the same compound?
The value was 0.076 ± 0.010 h⁻¹.

And the “Specific Growth Rates in 2% Glucose (μ)” value ([2]; I+ media)?
Its value is 0.111 ± 0.007 h⁻¹.

And the “Specific Growth Rates in 12% Glucose (μ)” value ([2]; I+ media)?
The value was 0.109 ± 0.010 h⁻¹.

What about the “Specific Growth Rates in 2% Glucose (μ)” value ([2]; I− media) of the same compound?
Its value is 0.065 ± 0.004 h⁻¹.

What about the “Specific Growth Rates in 12% Glucose (μ)” value ([2]; I− media) of the same compound?
The value was 0.057 ± 0.007 h⁻¹.

And the “d of wild type cells relative to opi1 cells” value ([3]; 15% ethanol after growth in +I media)?
The value was “over 3.5 times”.

What about the “d of wild type cells relative to opi1 cells” value ([3]; 15% ethanol after growth in −I media) of the same compound?
Its value is “nearly four times”.

And the “Specific Death Rates in 2% Glucose (d)” value ([3]; grown in I+ media, shocked in 10% Ethanol)?
The value was 0.084 h⁻¹.

What about the “Specific Death Rates in 2% Glucose (d)” value ([3]; grown in I+ media, shocked in 15% Ethanol) of the same compound?
The value was 2.61 h⁻¹.

And the “Specific Death Rates in 2% Glucose (d)” value ([3]; grown in I+ media, shocked in 15% Ethanol, listed as ethanol)?
The value was 2.61 h⁻¹ and 3.14 h⁻¹.

And the “Specific Death Rates in 2% Glucose (d)” value ([3]; grown in I− media, shocked in 10% Ethanol)?
Its value is 0.049 h⁻¹.

What about the “Specific Death Rates in 2% Glucose (d)” value ([3]; grown in I− media, shocked in 15% Ethanol) of the same compound?
The value was 3.14 h⁻¹.

What about the “Specific Death Rates in 2% Glucose (d)” value ([3]; grown in I− media, shocked in 15% Ethanol, listed as ethanol) of the same compound?
The value was 3.14 h⁻¹ and 2.61 h⁻¹.

And the “specific death rate d” value ([3]; wild type, 10% ethanol, with or without inositol in growth media)?
The value was “less than 0.1 hr^−1”.

And the “d after growth in −I media higher than after growth in +I” value ([3]; wild type, 15% ethanol)?
The value was 20%.

And the “d of opi1 in 18% ethanol, lower than d of wild type in 15% ethanol” value ([4]; both grown in +I media)?
The value was 38%.

And the “specific death rate d” value ([4]; opi1, 10% ethanol, with or without inositol in growth media)?
The value was “less than 0.1 hr^−1”.

What about the “increase of d after growth in −I media in comparison to +I media” value ([4]; opi1, 15% ethanol) of the same compound?
The value was 11%.

What about the “Specific Death Rates in 2% Glucose (d)” value ([4]; opi1, grown in I+ media, shocked in 10% Ethanol) of the same compound?
The value was 0.036 h⁻¹.

What about the “Specific Death Rates in 2% Glucose (d)” value ([4]; opi1, grown in I+ media, shocked in 15% Ethanol) of the same compound?
Its value is 0.71 h⁻¹.

What about the “Specific Death Rates in 2% Glucose (d)” value ([4]; opi1, grown in I+ media, shocked in 18% Ethanol) of the same compound?
The value was 1.61 h⁻¹.

What about the “Specific Death Rates in 2% Glucose (d)” value ([4]; opi1, grown in I− media, shocked in 10% Ethanol) of the same compound?
The value was 0.006 h⁻¹.

And the “Specific Death Rates in 2% Glucose (d)” value ([4]; opi1, grown in I− media, shocked in 15% Ethanol)?
The value was 0.79 h⁻¹.

From patent US20100317078A1, “METHODS TO IMPROVE ALCOHOL TOLERANCE OF MICROORGANISMS” (Cornell Research Foundation Inc, priority 2007, published 2010)
